We go through seven compounds from patent US8008299B2, “Urotensin II receptor antagonists” (Janssen Pharmaceutica, N.V., priority 2007, dated 2011).

Where two headings read alike, the source gives them in different places.

Assay [1] deals with T1, rat GPR14 (U-II receptor) (Rattus norvegicus, UniProt P49684).
T1 construct: expressed in transfected cells
T1 sequence (P49684 1-386): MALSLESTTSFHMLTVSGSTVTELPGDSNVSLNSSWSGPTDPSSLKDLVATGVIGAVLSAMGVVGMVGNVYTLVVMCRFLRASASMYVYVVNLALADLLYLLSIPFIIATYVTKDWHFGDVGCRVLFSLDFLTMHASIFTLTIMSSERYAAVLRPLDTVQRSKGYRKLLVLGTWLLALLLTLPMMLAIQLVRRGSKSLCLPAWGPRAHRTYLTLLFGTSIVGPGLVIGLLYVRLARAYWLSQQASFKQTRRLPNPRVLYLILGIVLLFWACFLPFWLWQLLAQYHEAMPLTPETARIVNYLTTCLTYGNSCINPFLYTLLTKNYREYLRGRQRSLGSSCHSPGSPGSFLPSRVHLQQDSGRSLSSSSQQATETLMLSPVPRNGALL
Conditions: agonist activity of the cyclic peptide used as agonist; read-out: FLIPR EC50; cited from earlier work.

A further assay has as its target T2, rU-II (Rattus norvegicus, UniProt P49684).
T2 sequence (P49684 1-386): T1 sequence (P49684 1-386)
Conditions: cited from earlier work.

Assay [2] has as its target T1, rat GPR14 (U-II receptor). Kind of assay: Rat UII Calcium Mobilization FLIPR Assay. Format: cell-based. Conditions: CHO cells transfected with rat GPR14; antagonist activity after 5 min incubation vs agonist (Ac)-CFWK(2-NaI)C-NH2 at 1 nM. The method in brief: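 Fluorescent calcium signals were recorded at room temperature (23° C) by FLIPR. Stable rat U-II receptor CHO lines had been dye-loaded for 1 h at 37° C in pH 7.4 HBSS containing 20 mM HEPES, 0.1% BSA and 2.5 mM probenecid.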

Assay [3] addresses T3, Human UII (U-II receptor) in 6D9 human rhabdomyosarcoma cells (Homo sapiens, UniProt Q9UKP6).
T3 construct: 6D9: isolated by dilution subcloning of RMS13 cells, ATCC® Number: CRL-2061; host or cells: 6D9 human rhabdomyosarcoma cells (subclone of RMS13)
T3 sequence (Q9UKP6 1-389): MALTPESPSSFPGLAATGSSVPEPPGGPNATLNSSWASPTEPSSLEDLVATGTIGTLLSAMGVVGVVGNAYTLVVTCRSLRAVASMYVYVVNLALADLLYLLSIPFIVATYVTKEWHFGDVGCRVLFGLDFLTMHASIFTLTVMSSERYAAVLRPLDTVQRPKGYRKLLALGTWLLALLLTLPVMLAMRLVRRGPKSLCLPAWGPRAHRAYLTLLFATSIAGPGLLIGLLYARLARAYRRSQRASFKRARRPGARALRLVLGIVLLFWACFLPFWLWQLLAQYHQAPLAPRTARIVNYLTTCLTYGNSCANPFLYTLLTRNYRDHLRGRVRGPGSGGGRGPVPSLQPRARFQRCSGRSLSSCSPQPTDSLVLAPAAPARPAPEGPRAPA
Kind of assay: Human UII Calcium Mobilization Assay. Conditions: 6D9 human rhabdomyosarcoma cells, FLIPR TETRA, average; read-out: Human UII Ca+ Mobilization Average IC50. Format: cell-based.

Assay [4] deals with T4, UT receptors in HSMM (Human Skeletal Muscle Myoblasts) (Homo sapiens, UniProt Q9UKP6).
T4 sequence (Q9UKP6 1-389): T3 sequence (Q9UKP6 1-389)
Description: Human Radioligand Binding Assay ((^125I)-U-II binding to intact HSMM).

With (Ac)-CFWK(2-NaI)C—NH2, the concentration for a half-maximal effect (EC50) in assay [1] was 0.54 ± 0.2 nM. Moreover, at rU-II, the Ki was 0.12 ± 0.05 nM.

`CCN1CCN(c2cccc3c2CN(C(CC2CCN(Cc4ccccc4)CC2)c2ccc(OC)c(OC)c2)C3=O)CC1` (centres unmarked) [Cpd 13, 2-[2-(1-benzyl-piperidin-4-yl)-1-(3,4-dimethoxy-phenyl)-ethyl]-4-(4-ethyl-piperazin-1-yl)-2,3-dihydro-isoindol-1-one]: the IC50 in assay [2] is 167 nM; in assay [3] it was 1980 nM. In assay [4], the Ki is > 300 nM.

In the case of `CCN1CCC(c2cccc3c2CN([C@H](CCCN(C)S(=O)(=O)c2cccs2)c2ccc(OC)c(OC)c2)C3=O)CC1` [Cpd 2, thiophene-2-sulfonic acid {(4R)-4-(3,4-dimethoxy-phenyl)-4-[4-(1-ethyl-piperidin-4-yl)-1-oxo-1,3-dihydro-isoindol-2-yl]-butyl}-methyl-amide], the half-maximal inhibitory concentration (IC50) in assay [2] stood at 32 nM; in assay [3], 695 nM. The compound further registered a Ki in assay [4] of 50 nM.

In the case of `CCN1CCN(c2cccc3c2CN([C@H](CCCNS(=O)(=O)c2cn(C)c(C)n2)c2ccc(OC)c(OC)c2)C3=O)CC1` [Cpd 82, 1,2-dimethyl-1H-imidazole-4-sulfonic acid {(4R)-4-(3,4-dimethoxy-phenyl)-4-[4-(4-ethyl-piperazin-1-yl)-1-oxo-1,3-dihydro-isoindol-2-yl]-butyl}-amide], the IC50 is 23 nM in assay [2] and 51 nM in assay [3]. This compound registered a Ki in assay [4] of 25 nM.

With `COc1ccc([C@@H](CCCN(C)S(=O)(=O)c2cccs2)N2Cc3c(cccc3N3CCN(C4CCC4)CC3)C2=O)cc1OC` [Cpd 9, thiophene-2-sulfonic acid [(4R)-4-[4-(4-cyclobutyl-piperazin-1-yl)-1-oxo-1,3-dihydro-isoindol-2-yl]-4-(3,4-dimethoxy-phenyl)-butyl]-methyl-amide], the IC50 in assay [2] was found to be 4 nM; in assay [3], 511 nM. For the same compound, in assay [4] (read-out: Human UII Average Binding Ki, intact HSMM, 0.150 nM (^125I)-U-II, 3 h, 25° C.), the Ki is 44 nM.

On to `CCN1CCN(c2cccc3c2CN(C(c2cccc(NCc4ccccc4)c2)c2ccc(OC)c(OC)c2)C3=O)CC1` (centres unmarked) [Cpd 19, 2-[(3-benzylamino-phenyl)-(3,4-dimethoxy-phenyl)-methyl]-4-(4-ethyl-piperazin-1-yl)-2,3-dihydro-isoindol-1-one], for which the half-maximal inhibitory concentration (IC50) was found to be 138 nM in assay [2] and 2380 nM in assay [3]. For the same compound, the Ki in assay [4] was > 300 nM.

For `CCN1CCN(c2cccc3c2CN([C@H](CCCNCC(C)(C)C)c2ccc(OC)c(OC)c2)C3=O)CC1` [Cpd 75, 2-[(1R)-1-(3,4-dimethoxy-phenyl)-4-(2,2-dimethyl-propylamino)-butyl]-4-(4-ethyl-piperazin-1-yl)-2,3-dihydro-isoindol-1-one], the IC50 was 37 nM in assay [2] and 2590 nM in assay [3]. The inhibition constant Ki in assay [4] was 242 nM.
